Assays:
[1] = target: IDH1 R132H (Homo sapiens (Human), UniProt O75874, R132H); assay: Assays for IDH1 R132H Inhibitors (NADPH/aKG, resazurin detection); type: biochemical; conditions: IDH1 R132H enzyme, Table 3; read-out: R132H IC50
Method in brief: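 Mutant enzyme in 150 mM NaCl, 10 mM MgCl2, 20 mM Tris pH 7.5, 0.03% BSA; compound in DMSO added to substrate mix of 8 uM NADPH and 2 mM aKG. Reaction ran 50 min at room temperature, then resazurin detection mix (30 μM) added for 5 min at room temperature.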

[2] = system: HT1080 cells; assay: Cellular assay for IDH1m inhibitors: inhibition of 2-HG production in HT1080 cells (LC-MS); type: cell-based; conditions: Homo sapiens, HT-1080, 48 hours
Experimental: (§1) Cells (e.g., HT1080 or U87MG) are grown in T125 flasks in DMEM containing 10% FBS, 1× penicillin/streptomycin and 500 ug/mL G418. They are harvested by trypsin and seeded into 96 well white bottom plates at a density of 5000 cell/well in 100 ul/well in DMEM with 10% FBS. No cells are plates in columns 1 and 12. Cells are incubated overnight at 37 C in 5% CO2. The next day compounds are made up at 2× concentration and 100 ul are added to each cell well. The final concentration of DMSO is 0.2% and the DMSO control wells are plated in row G. The plates are then placed in the incubator for 48 hours. At 48 hours, 100 ul of media is removed from each well and analyzed by LC-MS for 2-HG concentrations. The cell plate is placed back in the incubator for another 24 hours. At 72 hours post compound addition, 10 mL/plate of Promega Cell Titer Glo reagent is thawed and mixed. The cell plate is removed from the incubator and allowed to equilibrate to room temperature. Then 100 ul of reagent is added to each well of media. The cell plate is then placed on an orbital shaker for 10 minutes and then allowed to sit at room temperature for 20 minutes. The plate is then read for luminescence with an integration time of 500 ms.

[3] = system: U87R132H (U87MG) cells; assay: Cellular assay for IDH1m inhibitors: inhibition of 2-HG production in U87MG (U87R132H) cells (LC-MS); type: cell-based; conditions: Homo sapiens, U-87 MG, 48 hours
Experimental: as §1

IDH1 R132H, sequence (O75874 whole entry R132H): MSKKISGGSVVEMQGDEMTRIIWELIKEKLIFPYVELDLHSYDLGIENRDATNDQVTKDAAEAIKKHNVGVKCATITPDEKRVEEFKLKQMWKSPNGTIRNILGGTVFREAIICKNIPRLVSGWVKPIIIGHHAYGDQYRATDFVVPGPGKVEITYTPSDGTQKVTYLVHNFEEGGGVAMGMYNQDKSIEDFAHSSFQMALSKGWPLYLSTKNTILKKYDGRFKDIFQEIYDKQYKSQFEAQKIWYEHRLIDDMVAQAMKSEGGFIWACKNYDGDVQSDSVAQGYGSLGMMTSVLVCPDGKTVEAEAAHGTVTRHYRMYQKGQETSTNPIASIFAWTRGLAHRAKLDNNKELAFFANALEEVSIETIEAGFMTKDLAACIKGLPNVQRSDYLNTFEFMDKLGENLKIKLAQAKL

Row | SMILES | IC50 [1] [nM] | IC50 [2] [nM] | IC50 [3] [nM]
1 | [2H]C([2H])([2H])C([2H])(C([2H])([2H])[2H])C1([2H])CN(c2nc(C3CC3)c3c(c2C#N)CC(C)(C)OC3)CCN1C(=O)CC(F)(F)F (stereo in doubt) [Compound 451, (R)-8-cyclopropyl-6-(3-deuterio-3-(perdeuteriopropan-2-yl)-4-(3,3,3-trifluoropropanoyl)piperazin-1-yl)-3,3-dimethyl-3,4-dihydro-1H-pyrano[3,4-c]pyridine-5-carbonitrile] | < 500 | 1000 to 10000 | 1000 to 10000
2 | CCOC(=O)C1CN(c2nc(C3CC3)c3c(c2C#N)CC(C)(C)OC3)CCN1C(=O)Cc1cccs1 (centres unmarked) [Compound 421, Ethyl 4-(5-cyano-8-cyclopropyl-3,3-dimethyl-3,4-dihydro-1H-pyrano[3,4-c]pyridin-6-yl)-1-(2-(thiophen-2-yl)acetyl)piperazine-2-carboxylate] | 500 to 1000 | 1000 to 10000 | 1000 to 10000
3 | CNC(=O)CC(=O)N1CCN(c2nc(C3CC3)c3c(c2C#N)CC(C)(C)OC3)C[C@H]1C(C)C [Compound 422, (R)-3-(4-(5-cyano-8-cyclopropyl-3,3-dimethyl-3,4-dihydro-1H-pyrano[3,4-c]pyridin-6-yl)-2-isopropylpiperazin-1-yl)-N-methyl-3-oxopropanamide] | 500 to 1000 | 1000 to 10000 | 1000 to 10000
4 | CC(C)[C@@H]1CN(c2nc(C3CC3)c3c(c2C#N)CC(C)(C)OC3)CCN1C(=O)CC(F)(F)F [Compound 423, (R)-8-cyclopropyl-6-(3-isopropyl-4-(3,3,3-trifluoropropanoyl)piperazin-1-yl)-3,3-dimethyl-3,4-dihydro-1H-pyrano[3,4-c]pyridine-5-carbonitrile] | < 500 | 1000 to 10000 | 500 to 1000
5 | COCCCC(=O)N1CCN(c2nc(C3CC3)c3c(c2C#N)CC(C)(C)OC3)C[C@H]1C(C)C [Compound 424, (R)-8-cyclopropyl-6-(3-isopropyl-4-(4-methoxybutanoyl)piperazin-1-yl)-3,3-dimethyl-3,4-dihydro-1H-pyrano[3,4-c]pyridine-5-carbonitrile] | < 500 | 500 to 1000 | 500 to 1000
6 | COCCC(=O)N1CCN(c2nc(C3CC3)c3c(c2C#N)CC(C)(C)OC3)CC1C1CC1 (centres unmarked) [Compound 425, 8-cyclopropyl-6-(3-cyclopropyl-4-(3-methoxypropanoyl)piperazin-1-yl)-3,3-dimethyl-3,4-dihydro-1H-pyrano[3,4-c]pyridine-5-carbonitrile] | < 500 | < 500 | < 500
7 | CC1(C)Cc2c(C#N)c(N3CCN(C(=O)c4ccoc4)C(C4CC4)C3)nc(C3CC3)c2CO1 (centres unmarked) [Compound 426, 8-cyclopropyl-6-(3-cyclopropyl-4-(furan-3-carbonyl)piperazin-1-yl)-3,3-dimethyl-3,4-dihydro-1H-pyrano[3,4-c]pyridine-5-carbonitrile] | < 500 | < 500 | 500 to 1000
8 | CC(C)[C@@H]1CN(c2nc(C3CC3)c3c(c2C#N)CC(C)(C)OC3)CCN1C(=O)c1ccon1 [Compound 427, (R)-8-cyclopropyl-6-(3-isopropyl-4-(isoxazole-3-carbonyl)piperazin-1-yl)-3,3-dimethyl-3,4-dihydro-1H-pyrano[3,4-c]pyridine-5-carbonitrile] | 500 to 1000 | 1000 to 10000 | 1000 to 10000
9 | CC(=O)CCC(=O)N1CCN(c2nc(C3CC3)c3c(c2C#N)CC(C)(C)OC3)C[C@H]1C(C)C [Compound 428, (R)-8-cyclopropyl-6-(3-isopropyl-4-(4-oxopentanoyl)piperazin-1-yl)-3,3-dimethyl-3,4-dihydro-1H-pyrano[3,4-c]pyridine-5-carbonitrile] | < 500 | 1000 to 10000 | < 500
10 | CC(C)[C@@H]1CN(c2nc(C3CC3)c3c(c2C#N)CC(C)(C)OC3)CCN1C(=O)CCO [Compound 429, (R)-8-cyclopropyl-6-(4-(3-hydroxypropanoyl)-3-isopropylpiperazin-1-yl)-3,3-dimethyl-3,4-dihydro-1H-pyrano[3,4-c]pyridine-5-carbonitrile] | < 500 | < 500 | < 500
11 | CC1(C)Cc2c(C#N)c(N3CCN(C(=O)CC(F)(F)F)C(C4CC4)C3)nc(C3CC3)c2CO1 (centres unmarked) [Compound 430, 8-cyclopropyl-6-(3-cyclopropyl-4-(3,3,3-trifluoropropanoyl)piperazin-1-yl)-3,3-dimethyl-3,4-dihydro-1H-pyrano[3,4-c]pyridine-5-carbonitrile] | < 500 | 500 to 1000 | < 500
12 | COC(=O)NCCC(=O)N1CCN(c2nc(C3CC3)c3c(c2C#N)CC(C)(C)OC3)C[C@H]1C(C)C [Compound 431, (R)-methyl 3-(4-(5-cyano-8-cyclopropyl-3,3-dimethyl-3,4-dihydro-1H-pyrano[3,4-c]pyridin-6-yl)-2-isopropylpiperazin-1-yl)-3-oxopropylcarbamate] | 500 to 1000 | 1000 to 10000 | 1000 to 10000
13 | COCCC(=O)N1CCN(c2nc(C3CC3)c3c(c2C#N)CC(C)(C)OC3)C[C@H]1C [Compound 432, (R)-8-cyclopropyl-6-(4-(3-methoxypropanoyl)-3-methylpiperazin-1-yl)-3,3-dimethyl-3,4-dihydro-1H-pyrano[3,4-c]pyridine-5-carbonitrile] | 500 to 1000 | 1000 to 10000 | 1000 to 10000
14 | CC(O)CC(=O)N1CCN(c2nc(C3CC3)c3c(c2C#N)CC(C)(C)OC3)C[C@H]1C(C)C (stereo partly drawn) [Compound 433, 8-cyclopropyl-6-((3R)-4-(3-hydroxybutanoyl)-3-isopropylpiperazin-1-yl)-3,3-dimethyl-3,4-dihydro-1H-pyrano[3,4-c]pyridine-5-carbonitrile] | < 500 | 500 to 1000 | 500 to 1000
15 | CC(C)[C@@H]1CN(c2nc(C3CC3)c3c(c2C#N)CC(C)(C)OC3)CCN1C(=O)CCC(=O)OCCO [Compound 458, (R)-2-hydroxyethyl 4-(4-(5-cyano-8-cyclopropyl-3,3-dimethyl-3,4-dihydro-1H-pyrano[3,4-c]pyridin-6-yl)-2-isopropylpiperazin-1-yl)-4-oxobutanoate] |  | 500 to 1000 | < 500
16 | C=CC(=O)N1CCc2c(C3CC3)nc(N3CCN(C(=O)C4CC4)[C@H](C4CC4)C3)c(C#N)c2C1 [Compound 482, (R)-6-acryloyl-3-(4-(cyclopropanecarbonyl)-3-cyclopropylpiperazin-1-yl)-1-cyclopropyl-5,6,7,8-tetrahydro-2,6-naphthyridine-4-carbonitrile] |  | < 500 | < 500
17 | COCCC(=O)N1CCN(c2nc(C3CC3)c3c(c2C#N)CN(S(C)(=O)=O)CC3)C[C@H]1C1CC1 [Compound 487, (R)-1-cyclopropyl-3-(3-cyclopropyl-4-(3-methoxypropanoyl)piperazin-1-yl)-6-(methylsulfonyl)-5,6,7,8-tetrahydro-2,6-naphthyridine-4-carbonitrile] |  | 1000 to 10000 | 1000 to 10000
18 | C#CC(=O)N1CCc2c(C#N)c(N3CCN(C(=O)CCOC)[C@H](C4CC4)C3)nc(C3CC3)c2C1 [Compound 488, (R)-1-cyclopropyl-3-(3-cyclopropyl-4-(3-methoxypropanoyl)piperazin-1-yl)-′7-propioloyl-5,6,7,8-tetrahydro-2,7-naphthyridine-4-carbonitrile] |  | < 500 | < 500
